In this assay the target is T1, Recombinant full length human OGA enzyme (Homo sapiens, UniProt O60502).
T1 construct: Recombinant full length human OGA enzyme was purchased from Origene; purchased Origene
T1 sequence (O60502 1-916): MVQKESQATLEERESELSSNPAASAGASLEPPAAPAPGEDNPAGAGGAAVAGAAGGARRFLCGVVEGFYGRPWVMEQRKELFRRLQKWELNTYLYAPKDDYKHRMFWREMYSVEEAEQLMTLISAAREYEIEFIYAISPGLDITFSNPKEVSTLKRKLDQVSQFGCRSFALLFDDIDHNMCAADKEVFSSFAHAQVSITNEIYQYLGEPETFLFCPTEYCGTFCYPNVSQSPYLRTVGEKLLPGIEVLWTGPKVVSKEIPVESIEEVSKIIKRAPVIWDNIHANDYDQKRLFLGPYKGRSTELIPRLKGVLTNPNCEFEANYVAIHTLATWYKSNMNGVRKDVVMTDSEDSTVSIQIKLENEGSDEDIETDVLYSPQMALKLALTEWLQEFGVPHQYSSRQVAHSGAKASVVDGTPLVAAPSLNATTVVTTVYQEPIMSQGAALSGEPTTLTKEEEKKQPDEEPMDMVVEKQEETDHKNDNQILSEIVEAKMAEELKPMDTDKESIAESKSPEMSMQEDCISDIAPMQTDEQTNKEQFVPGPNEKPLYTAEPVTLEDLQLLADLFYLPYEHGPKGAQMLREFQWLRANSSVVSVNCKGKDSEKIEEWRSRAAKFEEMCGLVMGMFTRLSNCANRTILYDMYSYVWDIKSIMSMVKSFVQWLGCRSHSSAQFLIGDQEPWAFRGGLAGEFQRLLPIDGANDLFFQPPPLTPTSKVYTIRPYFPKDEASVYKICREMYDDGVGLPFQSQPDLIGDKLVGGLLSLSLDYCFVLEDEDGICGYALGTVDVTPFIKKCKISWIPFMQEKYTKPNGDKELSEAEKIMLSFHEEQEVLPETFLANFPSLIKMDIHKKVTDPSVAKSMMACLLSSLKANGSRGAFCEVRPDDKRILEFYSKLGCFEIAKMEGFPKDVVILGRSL
As to the kind of experiment: OGA enzyme inhibition biochemical assay. The settings on record: 1 nM OGA, 100 μM 4-MUGlcNAc (Km), pH 6.4, 90 minutes at room temperature, 10-point dose-response from 20 μM. As to the method:
N-(5-(((2S,4R)-4-([1,2,4]triazolo[4,3-a]pyrazin-3-yloxy)-2-methylpyrrolidin-1-yl)methyl)-4-fluorothiazol-2-yl)acetamide: The title compound was prepared in an analogous manner as Example 172 from 3-bromo-[1,2,4]triazolo[4,3-a]pyrazine. LCMS (ESI): [M+H] 392. ^1H NMR (600 MHz, CHLOROFORM-d) δ 10.75 (br s, 1H), 9.04 (s, 1H), 9.03 (s, 1H), 7.24 (s, 1H), 4.99-5.06 (m, 1H), 4.01 (d, J=14.49 Hz, 1H), 3.64 (d, J=14.67 Hz, 1H), 3.40 (d, J=11.55 Hz, 1H), 2.75 (dd, J=5.78, 11.46 Hz, 1H), 2.61-2.72 (m, 2H), 2.32 (s, 4H), 1.84-1.92 (m, 1H), 1.30 (d, J=5.87 Hz, 4H). ^19F NMR (565 MHz, CHLOROFORM-d) 6-115.92 (br s, 1F). OGA Enzyme Inhibition Biochemical Assay
Recombinant full length human OGA enzyme was purchased from Origene. 4-MUGlCNAc substrate was purchased from Sigma. All other reagents were purchased from Sigma or Fisher. Assay buffer consists of the McIlvaine buffer system, pH 6.4 (0.2M Na2HPO4 mixed with 0.1M citric acid) and 0.01% BSA. Reactions consist of 1 nM OGA, 100 μM 4-MUGlcNAc (Km), and compound in a final volume of 10 μl. Reactions were incubated for 90 minutes at room temperature and quenched with 40 μl of 3M glycine, pH 10 and read on a Perkin Elmer Envision plate reader (Ex: 355 nm/Em: 460 nm). Compounds were tested with a 10-point dose-response starting from 20 μM with a 4-fold dilution. Data, as presented in Table 1 below, was fit using GraphPad Prism using a 4-parameter fit with variable slope.

pIC50: −log10 of the molar value.

Experimental findings from patent US12522595B2, “Bicyclic ether O-glycoprotein-2-acetamido-2-deoxy-3-D-glucopyranosidase inhibitors” (BIOGEN MA INC., priority 2019, dated 2026) are described below.

The pIC50 is the IC50 on a negative log10 scale, so that one unit is a factor of ten.

Turning to `CC(=O)Nc1nc(F)c(CN2C[C@H](Oc3ccc4cn(C)nc4c3)C[C@@H]2C)s1` [Example 51, N-(4-fluoro-5-(((2S,4R)-2-methyl-4-((2-methyl-2H-indazol-6-yl)oxy)pyrrolidin-1-yl)methyl)thiazol-2-yl)acetamide], the pIC50 was greater than 9.00.
For `CC(=O)Nc1ncc(CN2C[C@H](Oc3ccc4cn(C)nc4c3)C[C@@H]2C)s1` [Example 52, N-(5-(((2S,4R)-2-methyl-4-((2-methyl-2H-indazol-6-yl)oxy)pyrrolidin-1-yl)methyl)thiazol-2-yl)acetamide] the value was greater than 9.00.
In the case of `CC(=O)Nc1ncc(CN2C[C@H](Oc3cn4nc(C)cc4cn3)C[C@@H]2C)s1` [Example 53, N-(5-(((2S,4R)-2-methyl-4-((2-methylpyrazolo[1,5-a]pyrazin-6-yl)oxy)pyrrolidin-1-yl)methyl)thiazol-2-yl)acetamide] it was greater than 9.00; in that of `CC(=O)Nc1nc(F)c(CN2C[C@H](Oc3ccc4ccnn4c3)C[C@@H]2C)s1` [Example 54, N-(4-fluoro-5-(((2S,4R)-2-methyl-4-(pyrazolo[1,5-a]pyridin-6-yloxy)pyrrolidin-1-yl)methyl)thiazol-2-yl)acetamide], greater than 9.00; in that of `CC(=O)Nc1ncc(CN2C[C@H](Oc3ccn4nccc4c3)C[C@@H]2C)s1` [Example 59, N-(5-(((2S,4R)-2-methyl-4-(pyrazolo[1,5-a]pyridin-5-yloxy)pyrrolidin-1-yl)methyl)thiazol-2-yl)acetamide], greater than 9.00.
Turning to `CC(=O)Nc1ncc(CN2C[C@H](Oc3ccn4nccc4n3)C[C@@H]2C)s1` [Example 61, N-(5-(((2S,4R)-2-methyl-4-(pyrazolo[1,5-a]pyrimidin-5-yloxy)pyrrolidin-1-yl)methyl)thiazol-2-yl)acetamide], the pIC50 is greater than 9.00.
For `CC(=O)Nc1nc(F)c(CN2C[C@H](Oc3ccn4nccc4n3)C[C@@H]2C)s1` [Example 62, N-(4-fluoro-5-(((2S,4R)-2-methyl-4-(pyrazolo[1,5-a]pyrimidin-5-yloxy)pyrrolidin-1-yl)methyl)thiazol-2-yl)acetamide] the value was greater than 9.00; for `CC(=O)Nc1ncc(CN2C[C@H](Oc3cccc4nccn34)C[C@@H]2C)s1` [Example 63, N-(5-(((2S,4R)-4-(imidazo[1,2-a]pyridin-5-yloxy)-2-methylpyrrolidin-1-yl)methyl)thiazol-2-yl)acetamide], greater than 9.00.
In the case of `CC(=O)Nc1nc(F)c(CN2C[C@H](Oc3cccc4nccn34)C[C@@H]2C)s1` [Example 64, N-(4-fluoro-5-(((2S,4R)-4-(imidazo[1,2-a]pyridin-5-yloxy)-2-methylpyrrolidin-1-yl)methyl)thiazol-2-yl)acetamide] it was greater than 9.00; in that of `CC(=O)Nc1ncc(CN2C[C@H](Oc3ccc4occc4n3)C[C@@H]2C)s1` [Example 65, N-(5-(((2S,4R)-4-(furo[3,2-b]pyridin-5-yloxy)-2-methylpyrrolidin-1-yl)methyl)thiazol-2-yl)acetamide], greater than 9.00; in that of `CC(=O)Nc1nc(F)c(CN2C[C@H](Oc3ccc4occc4n3)C[C@@H]2C)s1` [Example 66, N-(4-fluoro-5-(((2S,4R)-4-(furo[3,2-b]pyridin-5-yloxy)-2-methylpyrrolidin-1-yl)methyl)thiazol-2-yl)acetamide], greater than 9.00.
For `CC(=O)Nc1ncc(CN2C[C@H](Oc3nccc4occc34)C[C@@H]2C)s1` [Example 69, N-(5-(((2S,4R)-4-(furo[3,2-c]pyridin-4-yloxy)-2-methylpyrrolidin-1-yl)methyl)thiazol-2-yl)acetamide] the value was 8.57.
As to `CC(=O)Nc1nc(F)c(CN2C[C@H](Oc3nccc4occc34)C[C@@H]2C)s1` [Example 70, N-(4-fluoro-5-(((2S,4R)-4-(furo[3,2-c]pyridin-4-yloxy)-2-methylpyrrolidin-1-yl)methyl)thiazol-2-yl)acetamide], the pIC50 was 8.92.
For the compound `CC(=O)Nc1ncc(CN2C[C@H](Oc3ncnc4ccoc34)C[C@@H]2C)s1` [Example 71, N-(5-(((2S,4R)-4-(furo[3,2-d]pyrimidin-4-yloxy)-2-methylpyrrolidin-1-yl)methyl)thiazol-2-yl)acetamide], the pIC50 is greater than 9.00.
In the case of `CC(=O)Nc1ncc(CN2C[C@H](Oc3ncnc4occc34)C[C@@H]2C)s1` [Example 73, N-(5-(((2S,4R)-4-(furo[2,3-d]pyrimidin-4-yloxy)-2-methylpyrrolidin-1-yl)methyl)thiazol-2-yl)acetamide] it was greater than 9.00.
In the case of `CC(=O)Nc1nc(F)c(CN2C[C@H](Oc3ncnc4occc34)C[C@@H]2C)s1` [Example 74, N-(4-fluoro-5-(((2S,4R)-4-(furo[2,3-d]pyrimidin-4-yloxy)-2-methylpyrrolidin-1-yl)methyl)thiazol-2-yl)acetamide] it was greater than 9.00; in that of `CC(=O)Nc1nc(F)c(CN2C[C@H](Oc3ccc4ncoc4c3)C[C@@H]2C)s1` [Example 76, N-(5-(((2S,4R)-4-(benzo[d]oxazol-6-yloxy)-2-methylpyrrolidin-1-yl)methyl)-4-fluorothiazol-2-yl)acetamide], greater than 9.00; in that of `CC(=O)Nc1nc(F)c(CN2C[C@H](Oc3ccc4ccccc4n3)C[C@@H]2C)s1` [Example 78, N-(4-fluoro-5-(((2S,4R)-2-methyl-4-(quinolin-2-yloxy)pyrrolidin-1-yl)methyl)thiazol-2-yl)acetamide], greater than 9.00.
In the case of `COc1ccc2ccc(O[C@@H]3C[C@H](C)N(Cc4cnc(NC(C)=O)s4)C3)nc2c1` [Example 79, N-(5-(((2S,4R)-4-((7-methoxyquinolin-2-yl)oxy)-2-methylpyrrolidin-1-yl)methyl)thiazol-2-yl)acetamide] it was greater than 9.00; in that of `COc1ccc2ccc(O[C@@H]3C[C@H](C)N(Cc4sc(NC(C)=O)nc4F)C3)nc2c1` [Example 80, N-(4-fluoro-5-(((2S,4R)-4-((7-methoxyquinolin-2-yl)oxy)-2-methylpyrrolidin-1-yl)methyl)thiazol-2-yl)acetamide], greater than 9.00; in that of `CC(=O)Nc1ncc(CN2C[C@H](Oc3ccc4cccnc4n3)C[C@@H]2C)s1` [Example 81, N-(5-(((2S,4R)-4-((1,8-naphthyridin-2-yl)oxy)-2-methylpyrrolidin-1-yl)methyl)thiazol-2-yl)acetamide], greater than 9.00.
Consider `CC(=O)Nc1nc(F)c(CN2C[C@H](Oc3ccc4cccnc4n3)C[C@@H]2C)s1` [Example 82, N-(5-(((2S,4R)-4-((1,8-naphthyridin-2-yl)oxy)-2-methylpyrrolidin-1-yl)methyl)-4-fluorothiazol-2-yl)acetamide], for which the pIC50 is greater than 9.00.
For `CC(=O)Nc1ncc(CN2C[C@H](Oc3cccc4nn(C)cc34)C[C@@H]2C)s1` [Example 83, N-(5-(((2S,4R)-2-methyl-4-((2-methyl-2H-indazol-4-yl)oxy)pyrrolidin-1-yl)methyl)thiazol-2-yl)acetamide] the value was 8.96.
For `CC(=O)Nc1nc(F)c(CN2C[C@H](Oc3cccc4nn(C)cc34)C[C@@H]2C)s1` [Example 84, N-(4-fluoro-5-(((2S,4R)-2-methyl-4-((2-methyl-2H-indazol-4-yl)oxy)pyrrolidin-1-yl)methyl)thiazol-2-yl)acetamide] the value was greater than 9.00.
